From the supplement of paper PMC13380429

Legend:
Settings in all cases: 72 h
Vero E6 [1] = assay: cell viability relative to DMSO; higher = less toxic
Calu-3 [2] = assay: as above
U2OS [3] = assay: as above
Caco-2 [4] = assay: as above
HepG2 [5] = assay: as above
Vero E6 [6] = assay: relative viability EC50 (midpoint between 100% and the lowest measured viability); higher = less toxic
Calu-3 [7] = assay: as above
U2OS [8] = assay: as above
Caco-2 [9] = assay: as above
HepG2 [10] = assay: as above
Vero E6 [11] = assay: drug sensitivity score (DSS) for viability; higher = more toxic; extreme values may be limits of the assay
Calu-3 [12] = assay: as above
U2OS [13] = assay: as above
Caco-2 [14] = assay: as above
HepG2 [15] = assay: as above

Row | SMILES | cell viability (Vero E6 [1]; 1 nM) | cell viability (Vero E6 [1]; 10 nM) | cell viability (Vero E6 [1]; 100 nM) | cell viability (Vero E6 [1]; 1000 nM) | cell viability (Vero E6 [1]; 10000 nM) | cell viability (Calu-3 [2]; 1 nM) | cell viability (Calu-3 [2]; 10 nM) | cell viability (Calu-3 [2]; 100 nM) | cell viability (Calu-3 [2]; 1000 nM) | cell viability (Calu-3 [2]; 10000 nM) | cell viability (U2OS [3]; 1 nM) | cell viability (U2OS [3]; 10 nM) | cell viability (U2OS [3]; 100 nM) | cell viability (U2OS [3]; 1000 nM) | cell viability (U2OS [3]; 10000 nM) | cell viability (Caco-2 [4]; 1 nM) | cell viability (Caco-2 [4]; 10 nM) | cell viability (Caco-2 [4]; 100 nM) | cell viability (Caco-2 [4]; 1000 nM) | cell viability (Caco-2 [4]; 10000 nM) | cell viability (HepG2 [5]; 1 nM) | cell viability (HepG2 [5]; 10 nM) | cell viability (HepG2 [5]; 100 nM) | cell viability (HepG2 [5]; 1000 nM) | cell viability (HepG2 [5]; 10000 nM) | relative viability EC50 (Vero E6 [6]) | relative viability EC50 (Calu-3 [7]) | relative viability EC50 (U2OS [8]) | relative viability EC50 (Caco-2 [9]) | relative viability EC50 (HepG2 [10]) | drug sensitivity score (Vero E6 [11]) | drug sensitivity score (Calu-3 [12]) | drug sensitivity score (U2OS [13]) | drug sensitivity score (Caco-2 [14]) | drug sensitivity score (HepG2 [15])
1 | CC(C)N(CCCNC(=O)Nc1ccc(C(C)(C)C)cc1)C[C@H]1O[C@@H](n2cc(Br)c3c(N)ncnc32)[C@H](O)[C@@H]1O [SGC-0946] | 94.4% | 95.7% | 93% | 97.6% | 110% | 96% | 106% | 93.9% | 101% | 95.2% | 92.3% | 102% | 99.7% | 112% | 107% | 91.2% | 98.7% | 101% | 103% | 101% | 92.1% | 96.6% | 106% | 104% | 96.6% | > 10 µM | > 10 µM | > 10 µM | > 10 µM | > 10 µM | 0 | 0 | 0 | 0 | 0
2 | CN1CCCCC1CCN1c2ccccc2Sc2ccc([S+](C)[O-])cc21 (stereo not given) [mesoridazine] | 93.2% | 96.7% | 91% | 90.1% | 96.5% | 101% | 108% | 97.7% | 105% | 120% | 95.3% | 101% | 96.7% | 97.5% | 101% | 93.4% | 93.9% | 90.5% | 97% | 110% | 108% | 93.2% | 120% | 106% | 111% | > 10 µM | > 10 µM | > 10 µM | > 10 µM | > 10 µM | 0 | 0 | 0 | 0 | 0
3 | Cc1nc(C)c(Cl)c(O)c1Cl [clopidol] | 96.9% | 95.9% | 101% | 96.6% | 95.2% | 105% | 94.2% | 93.6% | 101% | 102% | 98.3% | 96.2% | 92.4% | 97.7% | 92.5% | 96.9% | 100% | 94.1% | 99.2% | 92.7% | 100% | 99.9% | 104% | 99.2% | 116% | > 10 µM | > 10 µM | > 10 µM | > 10 µM | > 10 µM | 0 | 0 | 0 | 0 | 0
4 | O=C(CCCCCN1C(=O)c2cccc3cccc(c23)C1=O)NO [scriptaid] | 107% | 106% | 103% | 75.3% | 0.1% | 101% | 102% | 102% | 73.7% | 23.4% | 102% | 98.6% | 96.8% | 72.7% | 3.1% | 107% | 90.8% | 97.6% | 80% | 2.4% | 108% | 109% | 93% | 78.2% | 2.9% | 1.56 µM | 1.3 µM | 1.45 µM | 1.72 µM | 1.64 µM | 9.3 | 8 | 9.4 | 8.6 | 8.8
5 | Cn1cc(C(=O)OCC2CCN(CCNS(C)(=O)=O)CC2)c2ccccc21 | 101% | 96.8% | 100% | 95.1% | 96.5% | 86% | 109% | 100% | 103% | 108% | 99.7% | 101% | 96.8% | 98.8% | 95.3% | 99% | 95.8% | 85.9% | 93.3% | 96.8% | 96.1% | 96.3% | 93.9% | 93.3% | 91.3% | > 10 µM | > 10 µM | > 10 µM | > 10 µM | > 10 µM | 0 | 0 | 0 | 0 | 0
6 | Cc1nc(Nc2n[nH]c3c2CN(C(=O)N[C@H](CN(C)C)c2ccccc2)C3(C)C)c2sccc2n1 | 97.9% | 99.9% | 93.7% | 64.4% | 46.6% | 92.2% | 89.9% | 82% | 61.7% | 25.2% | 100% | 88.6% | 54.5% | 35% | 0.8% | 98.9% | 97.9% | 70.6% | 68.8% | 45.9% | 89% | 72.6% | 38.4% | 26.6% | 10.3% | 0.552 µM | 0.571 µM | 0.192 µM | 0.203 µM | 0.0349 µM | 7.4 | 10.1 | 19 | 9.5 | 24.9
7 | Cc1cc(=O)oc2c(C=O)c(O)ccc12 [4-mu-8C] | 97.6% | 104% | 102% | 102% | 100% | 102% | 92.7% | 118% | 110% | 97.9% | 107% | 101% | 97.8% | 100% | 99% | 98% | 95.5% | 101% | 104% | 87.1% | 106% | 106% | 111% | 87.4% | 89.3% | > 10 µM | > 10 µM | > 10 µM | > 10 µM | > 10 µM | 0 | 0 | 0 | 0 | 0.6
8 | CC(C)=CCC/C(C)=C/CC/C(C)=C/CSc1ccccc1C(N)=O [farnesyl-thiosalicylic-acid-amide] | 89.8% | 101% | 92.8% | 87.1% | 99.7% | 106% | 92.4% | 108% | 105% | 111% | 98.9% | 100% | 105% | 98.3% | 102% | 104% | 116% | 95% | 116% | 104% | 100% | 105% | 96.6% | 108% | 85.7% | > 10 µM | > 10 µM | > 10 µM | > 10 µM | > 10 µM | 0 | 0 | 0 | 0 | 0.1
9 | Fc1ccc(C(c2ccc(F)cc2)N2CCN(C/C=C/c3ccccc3)CC2)cc1 [flunarizine] | 104% | 103% | 107% | 102% | 92.3% | 95.8% | 98.9% | 96.5% | 95.8% | 87.4% | 96.1% | 101% | 97.7% | 98.4% | 88.8% | 99.8% | 102% | 104% | 103% | 81.6% | 106% | 102% | 106% | 96.3% | 82.8% | > 10 µM | > 10 µM | > 10 µM | > 10 µM | > 10 µM | 0 | 0 | 0.1 | 0.3 | 0.8
10 | Nc1cc(-c2ccncc2)c[nH]c1=O [amrinone] | 95.5% | 96.2% | 86.6% | 100% | 106% | 94.9% | 95.7% | 93.7% | 93.9% | 109% | 104% | 98.3% | 105% | 98.9% | 108% | 96.2% | 97.1% | 92.4% | 91.8% | 95.9% | 96.2% | 100% | 104% | 97.8% | 97.3% | > 10 µM | > 10 µM | > 10 µM | > 10 µM | > 10 µM | 0 | 0 | 0 | 0 | 0
11 | CC(C)=CCC[C@](C)(O[C@@H]1O[C@H](CO)[C@@H](O)[C@H](O)[C@H]1O)[C@H]1CC[C@]2(C)[C@@H]1[C@H](O)C[C@@H]1[C@@]3(C)CC[C@H](O[C@@H]4O[C@H](CO)[C@@H](O)[C@H](O)[C@H]4O[C@@H]4O[C@H](CO)[C@@H](O)[C@H](O)[C@H]4O)C(C)(C)[C@@H]3CC[C@]12C [ginsenoside-RD] | 99.6% | 101% | 97.2% | 100% | 99.3% | 105% | 103% | 101% | 107% | 99.8% | 102% | 98.9% | 101% | 100% | 102% | 105% | 98.7% | 94.4% | 92.3% | 104% | 94.2% | 97.3% | 101% | 88.9% | 89.6% | > 10 µM | > 10 µM | > 10 µM | > 10 µM | > 10 µM | 0 | 0 | 0 | 0 | 0.3
12 | CCOC(=O)c1ccccc1OC(N)=O [ethyl-2-(carbamoyloxy)benzoate] | 109% | 91.4% | 102% | 106% | 103% | 93.2% | 92.5% | 98% | 122% | 103% | 98.6% | 103% | 100% | 102% | 98.6% | 104% | 91.5% | 97.1% | 106% | 96.9% | 106% | 87.2% | 94.2% | 83.5% | 103% | > 10 µM | > 10 µM | > 10 µM | > 10 µM | > 10 µM | 0 | 0 | 0 | 0 | 0
13 | O=c1c2ccccc2oc2ccccc12 [xanthone] | 104% | 100% | 101% | 99.1% | 95.9% | 95.3% | 96.5% | 103% | 104% | 104% | 101% | 94.9% | 99% | 97.9% | 100% | 102% | 98.6% | 101% | 95.1% | 106% | 108% | 93.8% | 93.5% | 110% | 93.6% | > 10 µM | > 10 µM | > 10 µM | > 10 µM | > 10 µM | 0 | 0 | 0 | 0 | 0
